{
  "source": "paper PMC9823088",
  "about": "“The oral selective estrogen receptor degrader GDC-0810 (ARN-810) in postmenopausal women with hormone receptor-positive HER2-negative (HR + /HER2 −) advanced/metastatic breast cancer” (Breast Cancer Research and Treatment, 2022)",
  "key": {"[1]": {"tested_on": "ERα", "design": "method as in PMID 27410477", "settings": "MCF-7 breast cancer cell; cited from earlier work"}, "[2]": {"tested_on": "CYP2C enzymes", "design": "method as in printed", "settings": "stated as reason for dose adjustments; ref not given; cited from earlier work"}, "[3]": {"test": "Study drug exposure (treatment duration)", "format": "in vivo, human", "settings": "phase Ia", "text": "Patients in all three study phases continued treatment until unacceptable toxicity, disease progression, or consent withdrawal. See Supplementary Methods for other study treatment details."}, "[4]": {"tested_on": "ER and Ki-67", "test": "Paired tumor biopsies, ER protein levels and Ki-67", "format": "in vivo, human", "settings": "after one cycle (28 days of treatment); samples from 3 patients only, no conclusions could be drawn", "experimental": "CYP2B6 and CYP2C enzymes. No hormonal therapy, chemotherapy, immunotherapy, or experimental anti-cancer medications were permitted during the study.\nBlood samples were collected for pharmacokinetic assessment on lead-in day −7 and cycle 2 day 1 (C2D1) at predose (0 hour) and postdose (0.5, 1, 1.5, 2, 3, 4, 6, 8, and 24 hours), (plus at 48 hours postdose for day−7). Full plasma pharmacokinetic profiles were obtained for GDC-0810 and its glucuronide metabolites (acyl-glucuronide and N-glucuronide) using a validated liquid chromatography/ tandem mass spectrometry method, and analyzed using non-compartmental methods for all patients in the dose escalation cohorts.\nTumor assessments were performed at screening and every 8 weeks from cycle-1, day-1 (C1D1). Radiographic assessment of objective tumor response or disease progression was based on Response Evaluation Criteria in Solid Tumors (RECIST v1.1). […] Imaging with [18F]-fluoroestradiol positron emission tomography (FES-PET) was performed to quantify ER expression in tumors and to assess for pharmacodynamic response. […]\nIn phase IIa cohort A1 patients, FES-PET scans were acquired at screening and on C3D3 at 18-24 hours post the C3D2 dose. […] The mean percent change from baseline in SUVmax (corrected for background activity) for up to five index lesions was calculated for each patient; more details are presented in (1). […]"}, "[5]": {"tested_on": "tamoxifen-resistant ER + breast cancer xenograft", "settings": "tamoxifen-resistant ER + breast cancer xenograft models; cited from earlier work"}, "[6]": {"test": "Endometrial thickness by transvaginal ultrasound", "format": "in vivo, human", "experimental": "Blood samples were collected for pharmacokinetic assessments. Tumor assessments were performed at screening and every 8 weeks from cycle 1, day 1 (C1D1). Radiographic assessment of objective tumor response or disease progression was based on Response Evaluation Criteria in Solid Tumors (RECIST v1.1). Transvaginal ultrasound scans were performed to monitor endometrial thickness at screening, at every 6 months from C1D1, and at the end of treatment. Imaging with [^18F]-fluoroestradiol positron emission tomography (FES-PET) was performed to quantify ER expression in tumors and to assess for pharmacodynamic response. Further assessment details are provided in Supplementary Methods. […]\nTumor assessments were performed at screening and every 8 weeks from cycle-1, day-1 (C1D1). Radiographic assessment of objective tumor response or disease progression was based on Response Evaluation Criteria in Solid Tumors (RECIST v1.1). Transvaginal ultrasound scans were performed to monitor endometrial thickness at screening, at every 6 months from C1D1, and at the end of treatment. […]"}, "[7]": {"tested_on": "tamoxifen-sensitive ER + breast cancer xenograft", "settings": "tamoxifen-sensitive ER + breast cancer xenograft models; cited from earlier work"}},
  "data": [
    {"smiles": "CC/C(=C(/c1ccc(/C=C/C(=O)O)cc1)c1ccc2[nH]ncc2c1)c1ccc(F)cc1Cl", "note": "[GDC-0810]", "values": [
      {"measurement": "proteasomal degradation of ERα", "setting": "[1]", "value": "induced proteasomal degradation of ERα"},
      {"measurement": "response of ER to estrogens", "setting": "[1]", "value": "fully antagonized"},
      {"measurement": "effects on CYP2C enzymes", "setting": "[2]", "value": "inhibitory effects"},
      {"measurement": "patients remaining on study treatment for 2 years", "setting": "[3]", "value": "Two"},
      {"measurement": "ER and Ki-67 levels in tumor specimens", "setting": "[4]", "value": "reduced ER and Ki-67 levels"},
      {"measurement": "tumor regression", "setting": "[5]", "value": "induced tumor regression"},
      {"measurement": "patients with an increase in the thickness of endometrium compared to baseline", "setting": "[6]; 10 patients in phase Ia with baseline and at least one follow-up scan", "value": "9 (90%) n (%)"},
      {"measurement": "change in endometrial thickness, range", "setting": "[6]; phase Ia", "value": "0 to 11", "unit": "mm"},
      {"measurement": "mean change in endometrial thickness", "setting": "[6]; phase Ia", "value": 4.4, "unit": "mm"},
      {"measurement": "median change in endometrial thickness", "setting": "[6]; phase Ia", "value": 3.5, "unit": "mm"},
      {"measurement": "tumor regression", "setting": "[7]", "value": "induced tumor regression"}
    ]}
  ]
}
